Measurements taken from ChEMBL document CHEMBL4699634, “Series of Novel and Highly Potent Cyclic Peptide PCSK9 Inhibitors Derived from an mRNA Display Screen and Optimized via Structure-Based Design” (J Med Chem, 2020).
Numbered stars: 1 amine (or outer) side, 2 acyl side, 3 side chain; on linkers, the order of the positions; unused ones are H or OH. Bridge positions count the residues as written; N and C are the ends. Square brackets hold non-standard residues; d marks the D form. Peptide text beside a SMILES is read from it. ξ: configuration not given here. Trp(5-F) = N[C@@H](Cc1c[nH]c2ccc(F)cc12)C(=O)O; X4 = CC(N[*:1])(C(=O)[*:2])c1cccc2ccccc12; NMeW = CN[C@@H](Cc1c[nH]c2ccccc12)C(=O)O; X1 = O=C(CCSCc1cccc(CSCCN[*:1])c1)[*:2]; mXylylene = c1cc(C[*:1])cc(C[*:2])c1; NMeY = CN[C@@H](Cc1ccc(O)cc1)C(=O)O; NMeH = CN[C@@H](Cc1c[nH]cn1)C(=O)O; NMeD = CN[C@@H](CC(=O)O)C(=O)O; NMeK = CN[C@@H](CCCCN)C(=O)O; ξhPhe = NC(CCc1ccccc1)C(=O)O; αMeP = C[C@@]1(C(=O)O)CCCN1; NMeC = CN[C@@H](CS)C(=O)O; Pip = O=C(O)[C@@H]1CCCCN1; Aze = O=C(O)[C@@H]1CCN1; Mpa = O=C(O)CCS; Sar = CNCC(=O)O

These compounds were tested against PCSK9/LDLR (Homo sapiens, UniProt Q8NBP7) (assay: Inhibition of avi-tagged-biotinylated human PCSK9 interaction with His-tagged human LDLR EGFa domain by LANCE Ulight Streptavidin based TR-FRET assay).
Assay type: protein assay

Chain of PCSK9/LDLR (Q8NBP7 31-152 limits assumed): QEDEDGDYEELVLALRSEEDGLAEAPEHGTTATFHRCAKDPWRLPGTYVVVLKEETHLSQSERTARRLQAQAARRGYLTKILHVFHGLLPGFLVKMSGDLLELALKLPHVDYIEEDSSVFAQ
Chain of PCSK9/LDLR (Q8NBP7 153-692 limits assumed): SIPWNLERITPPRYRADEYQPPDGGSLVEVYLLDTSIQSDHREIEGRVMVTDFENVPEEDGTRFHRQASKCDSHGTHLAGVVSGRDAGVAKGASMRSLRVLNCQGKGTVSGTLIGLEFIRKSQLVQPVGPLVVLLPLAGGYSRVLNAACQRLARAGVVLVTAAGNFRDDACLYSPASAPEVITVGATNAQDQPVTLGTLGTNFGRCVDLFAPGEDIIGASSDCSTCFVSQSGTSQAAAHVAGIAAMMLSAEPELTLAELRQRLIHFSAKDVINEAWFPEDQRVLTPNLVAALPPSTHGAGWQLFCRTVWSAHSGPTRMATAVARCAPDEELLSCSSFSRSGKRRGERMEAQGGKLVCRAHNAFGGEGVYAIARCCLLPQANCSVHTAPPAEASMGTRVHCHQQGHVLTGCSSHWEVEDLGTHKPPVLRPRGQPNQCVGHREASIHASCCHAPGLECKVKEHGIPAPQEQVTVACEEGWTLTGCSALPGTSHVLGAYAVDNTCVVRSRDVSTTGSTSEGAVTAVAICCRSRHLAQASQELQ
Chain of PCSK9/LDLR (P01130 22-860 partner limits assumed): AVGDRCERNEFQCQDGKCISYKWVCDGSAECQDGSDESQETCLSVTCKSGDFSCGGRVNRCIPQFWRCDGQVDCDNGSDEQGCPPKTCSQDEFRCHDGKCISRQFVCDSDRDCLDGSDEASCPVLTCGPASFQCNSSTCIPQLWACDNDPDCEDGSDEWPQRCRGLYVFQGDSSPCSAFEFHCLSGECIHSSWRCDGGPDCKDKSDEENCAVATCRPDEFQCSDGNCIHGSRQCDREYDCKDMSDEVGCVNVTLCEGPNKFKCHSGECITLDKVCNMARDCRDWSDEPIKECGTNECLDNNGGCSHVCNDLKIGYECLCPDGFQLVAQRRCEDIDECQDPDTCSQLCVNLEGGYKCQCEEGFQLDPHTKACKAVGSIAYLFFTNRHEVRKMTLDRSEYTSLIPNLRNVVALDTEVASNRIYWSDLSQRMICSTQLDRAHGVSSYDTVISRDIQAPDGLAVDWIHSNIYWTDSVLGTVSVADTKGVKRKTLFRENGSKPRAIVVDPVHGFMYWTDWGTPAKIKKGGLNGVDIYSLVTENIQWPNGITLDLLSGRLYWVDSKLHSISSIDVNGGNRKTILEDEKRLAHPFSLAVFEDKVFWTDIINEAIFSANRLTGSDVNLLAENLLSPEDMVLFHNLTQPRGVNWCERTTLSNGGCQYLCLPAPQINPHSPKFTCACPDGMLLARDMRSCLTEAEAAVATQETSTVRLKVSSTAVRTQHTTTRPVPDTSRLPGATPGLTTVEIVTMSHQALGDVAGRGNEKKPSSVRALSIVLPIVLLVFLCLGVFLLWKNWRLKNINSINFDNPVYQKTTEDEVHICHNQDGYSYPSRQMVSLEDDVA

SMILES | Ki
CN1C(=O)CNC(=O)[C@H](CCCCN)NC(=O)CCSCc2cccc(c2)CSC[C@@H](C(N)=O)NC(=O)[C@@H]2CCCN2C(=O)[C@H](Cc2ccc(O)cc2)NC(=O)[C@H](Cc2cnc[nH]2)NC(=O)[C@H](CC(=O)O)NC(=O)[C@H](Cc2c[nH]c3ccc(F)cc23)NC(=O)[C@@H]1Cc1c[nH]c2ccccc12 ([Mpa]KG[NMeW][Trp(5-F)]DHYPC-NH2; linker 1-10 via mXylylene) | > 48000 nM
C[C@@H]1NC(=O)[C@H](Cc2c[nH]c3ccc(F)cc23)NC(=O)CNC(=O)[C@H](CCCCN)NC(=O)CCSCc2cccc(c2)CSC[C@@H](C(N)=O)NC(=O)[C@@H]2CCCN2C(=O)[C@H](Cc2ccc(O)cc2)NC(=O)[C@H](Cc2cnc[nH]2)NC(=O)[C@H](CC(=O)O)NC1=O ([Mpa]KG[Trp(5-F)]ADHYPC-NH2; linker 1-10 via mXylylene) | > 48000 nM
CN1C(=O)[C@H](Cc2c[nH]c3ccc(F)cc23)NC(=O)CNC(=O)[C@H](CCCCN)NC(=O)CCSCc2cccc(c2)CSC[C@@H](C(N)=O)NC(=O)[C@@H]2CCCN2C(=O)[C@H](Cc2ccc(O)cc2)NC(=O)[C@H](Cc2cnc[nH]2)NC(=O)[C@H](CC(=O)O)NC(=O)[C@@H]1Cc1c[nH]c2ccccc12 ([Mpa]KG[Trp(5-F)][NMeW]DHYPC-NH2; linker 1-10 via mXylylene) | > 48000 nM
C[C@@H]1NC(=O)[C@H](Cc2c[nH]c3ccc(F)cc23)NC(=O)[C@H](Cc2c[nH]c3ccc(F)cc23)NC(=O)CNC(=O)[C@H](CCCCN)NC(=O)CCSCc2cccc(c2)CSC[C@@H](C(N)=O)NC(=O)[C@@H]2CCCN2C(=O)[C@H](Cc2ccc(O)cc2)NC(=O)[C@H](Cc2cnc[nH]2)NC1=O ([Mpa]KG[Trp(5-F)][Trp(5-F)]AHYPC-NH2; linker 1-10 via mXylylene) | 427 nM
C[C@@H]1NC(=O)[C@H](CC(=O)O)NC(=O)[C@H](Cc2c[nH]c3ccc(F)cc23)NC(=O)[C@H](Cc2c[nH]c3ccc(F)cc23)NC(=O)CNC(=O)[C@H](CCCCN)NC(=O)CCSCc2cccc(c2)CSC[C@@H](C(N)=O)NC(=O)[C@@H]2CCCN2C(=O)[C@H](Cc2ccc(O)cc2)NC1=O ([Mpa]KG[Trp(5-F)][Trp(5-F)]DAYPC-NH2; linker 1-10 via mXylylene) | 525 nM
C[C@@H]1NC(=O)[C@H](Cc2cnc[nH]2)NC(=O)[C@H](CC(=O)O)NC(=O)[C@H](Cc2c[nH]c3ccc(F)cc23)NC(=O)[C@H](Cc2c[nH]c3ccc(F)cc23)NC(=O)CNC(=O)[C@H](CCCCN)NC(=O)CCSCc2cccc(c2)CSC[C@@H](C(N)=O)NC(=O)[C@@H]2CCCN2C1=O ([Mpa]KG[Trp(5-F)][Trp(5-F)]DHAPC-NH2; linker 1-10 via mXylylene) | > 48000 nM
C[C@@H]1NC(=O)[C@H](Cc2ccc(O)cc2)NC(=O)[C@H](Cc2cnc[nH]2)NC(=O)[C@H](CC(=O)O)NC(=O)[C@H](Cc2c[nH]c3ccc(F)cc23)NC(=O)[C@H](Cc2c[nH]c3ccc(F)cc23)NC(=O)CNC(=O)[C@H](CCCCN)NC(=O)CCSCc2cccc(c2)CSC[C@@H](C(N)=O)NC1=O ([Mpa]KG[Trp(5-F)][Trp(5-F)]DHYAC-NH2; linker 1-10 via mXylylene) | > 48000 nM
CN1C(=O)[C@@H]2CCCN2C(=O)[C@H](Cc2ccc(O)cc2)NC(=O)[C@H](Cc2cnc[nH]2)NC(=O)[C@H](CC(=O)O)NC(=O)[C@H](Cc2c[nH]c3ccc(F)cc23)NC(=O)[C@H](Cc2c[nH]c3ccc(F)cc23)NC(=O)CNC(=O)[C@H](CCCCN)NC(=O)CCSCc2cccc(c2)CSC[C@H]1C(N)=O ([Mpa]KG[Trp(5-F)][Trp(5-F)]DHYP[NMeC]-NH2; linker 1-10 via mXylylene) | > 48000 nM
NCCCC[C@@H]1NC(=O)CCSCc2cccc(c2)CSC[C@@H](C(N)=O)NC(=O)[C@@H]2CCN2C(=O)[C@H](Cc2ccc(O)cc2)NC(=O)[C@H](Cc2cnc[nH]2)NC(=O)[C@H](CC(=O)O)NC(=O)[C@H](Cc2c[nH]c3ccc(F)cc23)NC(=O)[C@H](Cc2c[nH]c3ccc(F)cc23)NC(=O)CNC1=O ([Mpa]KG[Trp(5-F)][Trp(5-F)]DHY[Aze]C-NH2; linker 1-10 via mXylylene) | 67.5 nM
NCCCC[C@@H]1NC(=O)CCSCc2cccc(c2)CSC[C@@H](C(N)=O)NC(=O)[C@@H]2CCCCN2C(=O)[C@H](Cc2ccc(O)cc2)NC(=O)[C@H](Cc2cnc[nH]2)NC(=O)[C@H](CC(=O)O)NC(=O)[C@H](Cc2c[nH]c3ccc(F)cc23)NC(=O)[C@H](Cc2c[nH]c3ccc(F)cc23)NC(=O)CNC1=O ([Mpa]KG[Trp(5-F)][Trp(5-F)]DHY[Pip]C-NH2; linker 1-10 via mXylylene) | 969 nM
CN1CC(=O)N[C@H](C(N)=O)CSCc2cccc(c2)CSCCC(=O)N[C@@H](CCCCN)C(=O)NCC(=O)N[C@@H](Cc2c[nH]c3ccc(F)cc23)C(=O)N[C@@H](Cc2c[nH]c3ccc(F)cc23)C(=O)N[C@@H](CC(=O)O)C(=O)N[C@@H](Cc2cnc[nH]2)C(=O)N[C@@H](Cc2ccc(O)cc2)C1=O ([Mpa]KG[Trp(5-F)][Trp(5-F)]DHY[Sar]C-NH2; linker 1-10 via mXylylene) | 10700 nM
CN1C(=O)[C@H](Cc2cnc[nH]2)NC(=O)[C@H](CC(=O)O)NC(=O)[C@H](Cc2c[nH]c3ccc(F)cc23)NC(=O)[C@H](Cc2c[nH]c3ccc(F)cc23)NC(=O)CNC(=O)[C@H](CCCCN)NC(=O)CCSCc2cccc(c2)CSC[C@@H](C(N)=O)NC(=O)[C@@H]2CCCN2C(=O)[C@@H]1Cc1ccc(O)cc1 ([Mpa]KG[Trp(5-F)][Trp(5-F)]DH[NMeY]PC-NH2; linker 1-10 via mXylylene) | 112 nM
CN1C(=O)[C@H](CC(=O)O)NC(=O)[C@H](Cc2c[nH]c3ccc(F)cc23)NC(=O)[C@H](Cc2c[nH]c3ccc(F)cc23)NC(=O)CNC(=O)[C@H](CCCCN)NC(=O)CCSCc2cccc(c2)CSC[C@@H](C(N)=O)NC(=O)[C@@H]2CCCN2C(=O)[C@H](Cc2ccc(O)cc2)NC(=O)[C@@H]1Cc1cnc[nH]1 ([Mpa]KG[Trp(5-F)][Trp(5-F)]D[NMeH]YPC-NH2; linker 1-10 via mXylylene) | > 48000 nM
C[C@@H]1NC(=O)[C@@H]2CCCN2C(=O)[C@H](Cc2c[nH]c3ccc(F)cc23)NC(=O)[C@H](Cc2c[nH]c3ccc(F)cc23)NC(=O)CNC(=O)[C@H](CCCCN)NC(=O)CCSCc2cccc(c2)CSC[C@@H](C(N)=O)NC(=O)[C@]2(C)CCCN2C(=O)[C@H](Cc2ccc(O)cc2)NC1=O ([Mpa]KG[Trp(5-F)][Trp(5-F)]PAY[αMeP]C-NH2; linker 1-10 via mXylylene) | 88.3 nM
CN1C(=O)[C@H](Cc2c[nH]c3ccc(F)cc23)NC(=O)[C@H](Cc2c[nH]c3ccc(F)cc23)NC(=O)CNC(=O)[C@H](CCCCN)NC(=O)CCSCc2cccc(c2)CSC[C@@H](C(N)=O)NC(=O)[C@@H]2CCCN2C(=O)[C@H](Cc2ccc(O)cc2)NC(=O)[C@H](Cc2cnc[nH]2)NC(=O)[C@@H]1CC(=O)O ([Mpa]KG[Trp(5-F)][Trp(5-F)][NMeD]HYPC-NH2; linker 1-10 via mXylylene) | 12900 nM
CC1(c2cccc3ccccc23)NC(=O)CNC(=O)[C@H](CCCCN)NC(=O)CCSCc2cccc(c2)CSC[C@@H](C(N)=O)NC(=O)[C@@H]2CCCN2C(=O)[C@H](Cc2ccc(O)cc2)NC(=O)[C@H](Cc2cnc[nH]2)NC(=O)[C@H](CC(=O)O)NC(=O)[C@H](Cc2c[nH]c3ccc(F)cc23)NC1=O (stereo partly drawn) ([Mpa]KG[X4][Trp(5-F)]DHYPC-NH2; linker 1-10 via mXylylene) | 63 nM
NCCCC[C@@H]1NC(=O)CCSCc2cccc(c2)CSC[C@@H](C(N)=O)NC(=O)[C@@H]2CCCN2C(=O)[C@H](Cc2ccc(O)cc2)NC(=O)[C@H](Cc2cnc[nH]2)NC(=O)[C@H](CC(=O)O)NC(=O)[C@H](Cc2c[nH]c3ccc(F)cc23)NC(=O)C(CCc2ccccc2)NC(=O)CNC1=O (stereo partly drawn) ([Mpa]KG[ξhPhe][Trp(5-F)]DHYPC-NH2; linker 1-10 via mXylylene) | 2210 nM
CN1CC(=O)N[C@@H](Cc2c[nH]c3ccc(F)cc23)C(=O)N[C@@H](Cc2c[nH]c3ccc(F)cc23)C(=O)N[C@@H](CC(=O)O)C(=O)N[C@@H](Cc2cnc[nH]2)C(=O)N[C@@H](Cc2ccc(O)cc2)C(=O)N2CCC[C@H]2C(=O)N[C@H](C(N)=O)CSCc2cccc(c2)CSCCC(=O)N[C@@H](CCCCN)C1=O ([Mpa]K[Sar][Trp(5-F)][Trp(5-F)]DHYPC-NH2; linker 1-10 via mXylylene) | 4090 nM
CN1C(=O)CCSCc2cccc(c2)CSC[C@@H](C(N)=O)NC(=O)[C@@H]2CCCN2C(=O)[C@H](Cc2ccc(O)cc2)NC(=O)[C@H](Cc2cnc[nH]2)NC(=O)[C@H](CC(=O)O)NC(=O)[C@H](Cc2c[nH]c3ccc(F)cc23)NC(=O)[C@H](Cc2c[nH]c3ccc(F)cc23)NC(=O)CNC(=O)[C@@H]1CCCCN ([Mpa][NMeK]G[Trp(5-F)][Trp(5-F)]DHYPC-NH2; linker 1-10 via mXylylene) | 342 nM
NCCCC[C@@H]1NC(=O)CCSCc2cccc(c2)CSCCNC(=O)[C@@H]2CCCN2C(=O)[C@H](Cc2ccc(O)cc2)NC(=O)[C@H](Cc2c[nH]cn2)NC(=O)[C@H](CC(=O)O)NC(=O)[C@H](Cc2c[nH]c3ccc(F)cc23)NC(=O)[C@H](Cc2c[nH]c3ccc(F)cc23)NC(=O)CNC1=O (cyclo(DHYP[X1]KG[Trp(5-F)][Trp(5-F)])) | 252 nM

The compounds below were run against Proprotein convertase subtilisin/kexin type 9 (Homo sapiens, UniProt Q8NBP7) (assay: Inhibition of AlexaFluor647-tagged cyclic peptide binding to avi-tagged-biotinylated human PCSK9 measured after 2 hrs by Lance Streptavidin Europium based FRET assay).
Chain of Proprotein convertase subtilisin/kexin type 9 (Q8NBP7 31-152 limits assumed): as the sequence (Q8NBP7 31-152 limits assumed) above
Chain of Proprotein convertase subtilisin/kexin type 9 (Q8NBP7 153-692 limits assumed): as the sequence (Q8NBP7 153-692 limits assumed) above

SMILES | Ki
COc1ccc(C[C@@H]2NC(=O)[C@H](Cc3cnc[nH]3)NC(=O)[C@H](CC(=O)O)NC(=O)[C@H](Cc3c[nH]c4ccc(F)cc34)NC(=O)[C@H](Cc3c[nH]c4ccc(F)cc34)NC(=O)[C@@H](C)NC(=O)[C@H](CCCCN)NC(=O)CCSCc3cccc(c3)CSCCNC(=O)[C@]3(C)CCCN3C2=O)cc1 | 3.9 nM
C[C@@]12CCCN1C(=O)[C@H](Cc1ccc(O)cc1)NC(=O)[C@H](Cc1cnc[nH]1)NC(=O)[C@H](CC(=O)O)NC(=O)[C@H](Cc1c[nH]c3ccc(F)cc13)NC(=O)[C@H](Cc1c[nH]c3ccc(F)cc13)NC(=O)[C@@H](C1CCCC1)NC(=O)[C@H](CCCCN)NC(=O)CCSCc1cccc(c1)CSCCNC2=O | 23.1 nM
CC(C)(C)[C@H]1NC(=O)[C@H](CCCCN)NC(=O)CCSCc2cccc(c2)CSCCNC(=O)[C@]2(C)CCCN2C(=O)[C@H](Cc2ccc(O)cc2)NC(=O)[C@H](Cc2cnc[nH]2)NC(=O)[C@H](CC(=O)O)NC(=O)[C@H](Cc2c[nH]c3ccc(F)cc23)NC(=O)[C@H](Cc2c[nH]c3ccc(F)cc23)NC1=O | 4.2 nM
